Active and inactive are the calls of the source. The calls are words filed in the database; no cut-off is given here.
Legend:
Hepatitis B virus [1] = test: Inhibition of HBeAg release against HBV in HepG2 2.2.15 cell line at 0.2 umol/mL; type: functional; parameters: scale not given: the % may be the effect or the level left
Hepatitis B virus [2] = test: Inhibition of HBsAg release against HBV in HepG2 2.2.15 cell line at 0.2 umol/mL; type: functional; parameters: scale not given: the % may be the effect or the level left
Hepatitis B virus [3] = test: Inhibition of HBsAg release against HBV in HepG2 2.2.15 cell line at 0.1 umol/mL; type: functional; parameters: scale not given: the % may be the effect or the level left
HepG2 [4] = test: Cytotoxicity against HepG2 2.2.15 cell line at 0.4 umol/mL by MTT assay; type: functional, Homo sapiens
Hepatitis B virus [5] = test: Inhibition of HBeAg release against HBV in HepG2 2.2.15 cell line at 0.1 umol/mL; type: functional; parameters: scale not given: the % may be the effect or the level left
Hepatitis B virus [6] = test: Inhibition of HBeAg release against HBV in HepG2 2.2.15 cell line at 0.4 umol/mL; type: functional; parameters: scale not given: the % may be the effect or the level left
HepG2 [7] = test: Cytotoxicity against HepG2 2.2.15 cell line at 0.8 umol/mL by MTT assay; type: functional, cell-based; conditions: Homo sapiens
Hepatitis B virus [8] = test: Inhibition of HBsAg release against HBV in HepG2 2.2.15 cell line at 0.4 umol/mL; type: functional; parameters: scale not given: the % may be the effect or the level left
HepG2 [9] = test: Cytotoxicity against HepG2 2.2.15 cell line at 1.6 umol/mL by MTT assay; type: functional, cell-based; conditions: Homo sapiens
Hepatitis B virus [10] = test: Inhibition of HBeAg release against HBV in HepG2 2.2.15 cell line at 0.8 umol/mL; type: functional; parameters: scale not given: the % may be the effect or the level left
Hepatitis B virus [11] = test: Inhibition of HBsAg release against HBV in HepG2 2.2.15 cell line at 0.8 umol/mL; type: functional; parameters: scale not given: the % may be the effect or the level left

| SMILES | Activity (Hepatitis B virus [1]) | Activity (Hepatitis B virus [2]) | Activity (Hepatitis B virus [3]) | Activity (HepG2 [4]) | Activity (Hepatitis B virus [5]) | Activity (Hepatitis B virus [6]) | Activity (HepG2 [7]) | Activity (Hepatitis B virus [8]) | Activity (HepG2 [9]) | Activity (Hepatitis B virus [10]) | Activity (Hepatitis B virus [11]) |
| --- | --- | --- | --- | --- | --- | --- | --- | --- | --- | --- | --- |
| O=C1C=CC[C@@H]2[C@H]3CCCN4CCC[C@@H](CN12)[C@@H]34 [SOPHOCARPINE] | 34.6% | 57.2% | 21.6% | >=25% | 31.4% |  |  |  |  |  |  |
| O=C1CCC[C@@H]2[C@H]3CCC[N+]4([O-])CCC[C@@H](CN12)[C@@H]34 (some centres undefined) [OXYMATRINE] | 17.1% | 39.7% | 35.3% | >=25% | 15.8% |  |  |  |  |  |  |
| O=c1cccc2n1C[C@H]1C[C@H]2CN2CCCC[C@H]12 | 0% | 19.8% |  |  |  | 0% | Active | 33.1% |  |  |  |
| O=C1CCC[C@@H]2[C@H]3CCCN4CCC[C@@H](CN12)[C@H]34 | 10.8% | 27.7% | 25.1% | >=25% | 9.6% |  |  |  |  |  |  |
| O=C1C=CC[C@@H]2[C@H]3C[C@H](O)CN4CCC[C@@H](CN12)[C@@H]34 | 5.7% | 24.5% | 0% | >=25% | 0% |  |  |  |  |  |  |
| O=C1CCC[C@@H]2[C@H]3CCCN4CCC[C@@H](CN12)[C@@H]34 [MATRINE] | 2.7% | 30.9% | 8.9% | >=25% | 0% |  |  |  |  |  |  |
| O=C1CC=C[C@@H]2[C@H]3CCCN4CCC[C@@H](CN12)[C@@H]34 | 25.4% | 52.6% | 25.1% | >=25% | 22.6% |  |  |  |  |  |  |
| O=C1C=CC[C@@H]2[C@H]3CCCN4CCC[C@H](CN12)[C@@H]34 | 6.8% | 63.4% | 17.9% |  | 0% | 22.4% |  | 78.2% | Active | 27.6% | 79.3% |
| O=C1C=C[C@H](O)[C@@H]2[C@H]3CCCN4CCC[C@@H](CN12)[C@@H]34 | 4.6% | 40.8% | 28% | >=25% | 0% |  |  |  |  |  |  |
| O=C1CCC[C@@H]2[C@H]3C[C@H](O)CN4CCC[C@@H](CN12)[C@@H]34 | 19.5% | 31.6% | 18.1% | >=25% | 13.3% |  |  |  |  |  |  |
| O=C1C=CC[C@@H]2[C@H]3CCC[N+]4([O-])CCC[C@@H](CN12)[C@@H]34 (some centres undefined) [OXYSOPHOCARPINE] | 24.6% | 48.3% | 39.9% | >=25% | 22.4% |  |  |  |  |  |  |

From ChEMBL document CHEMBL1138991, “(+)-12alpha-Hydroxysophocarpine, a new quinolizidine alkaloid and related anti-HBV alkaloids from Sophora flavescens” (2006)
